Test results taken from patent US20250059220A1, “SUBSTITUTED BENZOTHIOPHENE DERIVATIVES AND METHODS OF USE THEREOF” (Merck Sharp & Dohme LLC, priority 2021, published 2025).

Key:
[1] = molecular target: human PTPN2 (1-387) (Homo sapiens (Human), UniProt P17706); experiment: Human PTPN2 Biochemical Assay; settings: DiFMUP substrate
Method in brief: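 Fluorogenic DiFMUP hydrolysis (1 h, room temperature, read ex 360/em 460 nm) after 30 min compound preincubation with PTPN2 residues 1-387, in 50 mM Tris pH 7.4, 150 mM NaCl, 0.01% Tween20, 0.5 mM DTT. Effects scaled between buffer and enzyme controls, 4-parameter fit gives EC50.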

[2] = molecular target: human PTPN1 (1-435) (Homo sapiens (Human), UniProt P18031); experiment: Human PTPN1 Biochemical Assay; settings: DiFMUP substrate, read-out: PTP1B IC50
Method in brief: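 Read-out is DiFMUP hydrolysis fluorescence (360 nm excitation, 460 nm emission) after 1 h at room temperature, following 30 min enzyme–compound preincubation.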

Chain of human PTPN2 (1-387) (P17706 other isoform, or with tags, fused parts or gaps): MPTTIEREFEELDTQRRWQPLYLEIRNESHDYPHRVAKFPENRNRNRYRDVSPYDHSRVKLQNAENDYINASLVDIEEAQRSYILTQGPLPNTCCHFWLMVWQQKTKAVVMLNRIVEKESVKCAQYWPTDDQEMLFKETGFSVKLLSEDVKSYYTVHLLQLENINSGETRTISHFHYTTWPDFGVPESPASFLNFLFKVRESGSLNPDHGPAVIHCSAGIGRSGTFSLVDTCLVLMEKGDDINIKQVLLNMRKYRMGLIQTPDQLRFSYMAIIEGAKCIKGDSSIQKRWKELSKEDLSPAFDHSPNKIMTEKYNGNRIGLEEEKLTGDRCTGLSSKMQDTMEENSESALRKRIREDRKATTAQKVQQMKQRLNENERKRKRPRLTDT
Chain of human PTPN1 (1-435) (P18031 whole entry): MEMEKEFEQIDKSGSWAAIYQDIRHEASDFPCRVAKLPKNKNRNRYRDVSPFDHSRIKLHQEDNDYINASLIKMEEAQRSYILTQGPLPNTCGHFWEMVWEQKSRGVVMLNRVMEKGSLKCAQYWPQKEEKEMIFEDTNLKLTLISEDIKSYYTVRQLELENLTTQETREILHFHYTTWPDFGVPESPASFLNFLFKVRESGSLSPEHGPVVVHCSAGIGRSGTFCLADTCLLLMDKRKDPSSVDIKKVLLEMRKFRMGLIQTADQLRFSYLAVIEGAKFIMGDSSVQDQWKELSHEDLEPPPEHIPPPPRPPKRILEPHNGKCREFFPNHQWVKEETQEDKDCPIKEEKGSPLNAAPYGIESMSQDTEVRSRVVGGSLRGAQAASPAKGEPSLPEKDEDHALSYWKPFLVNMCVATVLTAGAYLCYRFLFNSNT

IC50 [1] [nM]	IC50 [2] [nM]	SMILES
774	490	COC(C)(C)C#Cc1cc(C(N)=O)cc2c(Br)c(C(F)(F)P(=O)(O)O)sc12 [Compound 234, ((3-bromo-5-carbamoyl-7-(3-methoxy-3-methylbut-1-yn-1-yl)benzo[b]thiophen-2-yl)difluoromethyl)phosphonic acid]
16.6	20	NC(=O)c1cc(OCCCS(N)(=O)=O)c2sc(C(F)(F)P(=O)(O)O)c(Br)c2c1 [Compound 235, ((3-bromo-5-carbamoyl-7-(3-sulfamoylpropoxy)benzo[b]thiophen-2-yl)difluoromethyl)phosphonic acid]
13.5	15.2	O=C(NCc1cccnn1)c1cc(OCCCC2CC2)c2sc(C(F)(F)P(=O)(O)O)c(Br)c2c1 [Compound 236]
441	544	NC(=O)c1cc(OCCOCC(F)(F)F)c2sc(C(F)(F)P(=O)(O)O)c(Br)c2c1 [Compound 237]
227	327	CCOc1cc(C(N)=O)cc2c(Br)c(C(F)(F)P(=O)(O)O)sc12 [Compound 238]
53.9	55.4	CCCCCOc1cc(C(N)=O)cc2c(Br)c(C(F)(F)P(=O)(O)O)sc12 [Compound 239]
98.7	112	CCCCOc1cc(C(N)=O)cc2c(Br)c(C(F)(F)P(=O)(O)O)sc12 [Compound 240]
50.5	61.8	N#CCCCCOc1cc(C(N)=O)cc2c(Br)c(C(F)(F)P(=O)(O)O)sc12 [Compound 241]
60	79.6	NC(=O)c1cc(OCc2ccccc2F)c2sc(C(F)(F)P(=O)(O)O)c(Br)c2c1 [Compound 242]
47.9	68.4	N#CCCCCCCOc1cc(C(N)=O)cc2c(Br)c(C(F)(F)P(=O)(O)O)sc12 [Compound 243]
227	259	N#CCOc1cc(C(N)=O)cc2c(Br)c(C(F)(F)P(=O)(O)O)sc12 [Compound 244]
1460	903	NC(=O)COc1cc(C(N)=O)cc2c(Br)c(C(F)(F)P(=O)(O)O)sc12 [Compound 245]
54.4	94.2	NC(=O)c1cc(OCc2cc(F)cc(C(F)(F)F)c2)c2sc(C(F)(F)P(=O)(O)O)c(Br)c2c1 [Compound 247]
50	54	CS(=O)(=O)N1CCC(Oc2cc(C(N)=O)cc3c(Br)c(C(F)(F)P(=O)(O)O)sc23)C1 (stereo not drawn) [Compound 248]
60.9	84.5	NC(=O)c1cc(OCC2CC3(CC3)C2)c2sc(C(F)(F)P(=O)(O)O)c(Br)c2c1 [Compound 249]
54.1	69.7	NC(=O)c1cc(OCC2CC2(F)F)c2sc(C(F)(F)P(=O)(O)O)c(Br)c2c1 (stereo not drawn) [Compound 250]
271	423	NC(=O)c1cc(OCCOCC(F)F)c2sc(C(F)(F)P(=O)(O)O)c(Br)c2c1 [Compound 251]
106	110	NC(=O)c1cc(OCCCOC(F)(F)F)c2sc(C(F)(F)P(=O)(O)O)c(Br)c2c1 [Compound 252]
84.6	118	NC(=O)c1cc(OCC2CCC(F)(F)CC2)c2sc(C(F)(F)P(=O)(O)O)c(Br)c2c1 [Compound 253]
111	155	CC(C)CCOc1cc(C(N)=O)cc2c(Br)c(C(F)(F)P(=O)(O)O)sc12 [Compound 254]
96.4	139	NC(=O)c1cc(OCCC2CC2)c2sc(C(F)(F)P(=O)(O)O)c(Br)c2c1 [Compound 255]
128	66	CS(=O)(=O)NCCCOc1cc(C(N)=O)cc2c(Br)c(C(F)(F)P(=O)(O)O)sc12 [Compound 256]

IC50 [1] [nM]	IC50 [2] [nM]	SMILES
294	237	NC(=O)c1cc(OCC(=O)Nc2c(F)cccc2F)c2sc(C(F)(F)P(=O)(O)O)c(Br)c2c1 [Compound 257]
26.3	24	NC(=O)c1cc(OCCC2CCCS2(=O)=O)c2sc(C(F)(F)P(=O)(O)O)c(Br)c2c1 (stereo not drawn) [Compound 264, ((3-bromo-5-carbamoyl-7-(2-(1,1-dioxidotetrahydrothiophen-2-yl)ethoxy)benzo[b]thiophen-2-yl)difluoromethyl)phosphonic acid]
60.3	62	O=C(NCc1cccnn1)c1cc(OCCCCn2ccnc2)c2sc(C(F)(F)P(=O)(O)O)c(Br)c2c1 [Compound 265]
12.9	17.4	O=C(NCc1cccnn1)c1cc(OCCCc2cccnc2)c2sc(C(F)(F)P(=O)(O)O)c(Br)c2c1 [Compound 266]
12.2	26	O=C(NCc1cccnn1)c1cc(OCCCc2ccncc2)c2sc(C(F)(F)P(=O)(O)O)c(Br)c2c1 [Compound 267]
20	15.7	O=C(NCc1cccnn1)c1cc(OCCCc2cncs2)c2sc(C(F)(F)P(=O)(O)O)c(Br)c2c1 [Compound 268]
26.4	37.1	NC(=O)c1cc(OCCCc2cncs2)c2sc(C(F)(F)P(=O)(O)O)c(Br)c2c1 [Compound 269]
21.6	23.3	CS(=O)(=O)CCCOc1cc(C(N)=O)cc2c(Br)c(C(F)(F)P(=O)(O)O)sc12 [Compound 270]
338	400	NC(=O)c1cc(OCCC(F)(F)F)c2sc(C(F)(F)P(=O)(O)O)c(Br)c2c1 [Compound 271]
47.2	35	NC(=O)c1cc(OCCCC(F)(F)C(F)(F)F)c2sc(C(F)(F)P(=O)(O)O)c(Br)c2c1 [Compound 272]
132	93	CCOCCCOc1cc(C(N)=O)cc2c(Br)c(C(F)(F)P(=O)(O)O)sc12 [Compound 273]
64.9	43	NC(=O)c1cc(OCCCCC(F)(F)F)c2sc(C(F)(F)P(=O)(O)O)c(Br)c2c1 [Compound 274]
176	83	NC(=O)c1cc(OCC2CC(F)(F)C2(F)F)c2sc(C(F)(F)P(=O)(O)O)c(Br)c2c1 (stereo not drawn) [Compound 275]
27.3	17	NC(=O)c1cc(OCC2CC3(C2)CC(F)(F)C3)c2sc(C(F)(F)P(=O)(O)O)c(Br)c2c1 [Compound 276]
108	69	C[C@@H]1C[C@@]1(F)COc1cc(C(N)=O)cc2c(Br)c(C(F)(F)P(=O)(O)O)sc12 [Compound 277]
17.4	16	CC(C)(C#N)CCCOc1cc(C(N)=O)cc2c(Br)c(C(F)(F)P(=O)(O)O)sc12 [Compound 278]
231	97	NC(=O)c1cc(OC[C@@H]2CC[C@H]2C(F)(F)F)c2sc(C(F)(F)P(=O)(O)O)c(Br)c2c1 [Compound 279]
99.4	62	NC(=O)c1cc(OCC2CC(OC(F)(F)F)C2)c2sc(C(F)(F)P(=O)(O)O)c(Br)c2c1 (stereo not drawn) [Compound 280]
27.8	18	CC(F)(F)CCCOc1cc(C(N)=O)cc2c(Br)c(C(F)(F)P(=O)(O)O)sc12 [Compound 281]
168	71	NC(=O)c1cc(OCC[C@@H]2C[C@H]2C(F)(F)F)c2sc(C(F)(F)P(=O)(O)O)c(Br)c2c1 [Compound 282]
50.2	28	CC12CC(COc3cc(C(N)=O)cc4c(Br)c(C(F)(F)P(=O)(O)O)sc34)(C1)C2 [Compound 283]

SMILES	IC50 [1] [nM]	IC50 [2] [nM]
O=P(O)(O)C(F)(F)c1sc2c(OCCCC(F)(F)F)c(F)ccc2c1Br [Compound 231, ((3-bromo-6-fluoro-7-(4,4,4-trifluorobutoxy)benzo[b]thiophen-2-yl)difluoromethyl)phosphonic acid]	989	879
O=P(O)(O)C(F)(F)c1sc2c(OCCCC(F)(F)F)cc(-c3nc[nH]n3)cc2c1Br [Compound 232, ((3-bromo-5-(1H-1,2,4-triazol-3-yl)-7-(4,4,4-trifluorobutoxy)benzo[b]thiophen-2-yl)difluoromethyl)phosphonic acid]	3.06	3.4
N#Cc1cc(OCCCC(F)(F)F)c2sc(C(F)(F)P(=O)(O)O)c(Br)c2c1 [Compound 233, ((3-bromo-5-cyano-7-(4,4,4-trifluorobutoxy)benzo[b]thiophen-2-yl)difluoromethyl)phosphonic acid]	146	77
O=P(O)(O)C(F)(F)c1sc2c(OCCCC(F)(F)F)cc(-c3cnn[nH]3)cc2c1Br [Compound 258, ((3-bromo-5-(1H-1,2,3-triazol-5-yl)-7-(4,4,4-trifluorobutoxy)benzo[b]thiophen-2-yl)difluoromethyl)phosphonic acid]	8.39	4.3
Nc1cc(OCCCC(F)(F)F)c2sc(C(F)(F)P(=O)(O)O)c(Br)c2c1 [Compound 259, ((5-amino-3-bromo-7-(4,4,4-trifluorobutoxy)benzo[b]thiophen-2-yl)difluoromethyl)phosphonic acid]	338	180
O=P(O)(O)C(F)(F)c1sc2c(OCCCC(F)(F)F)cc(-c3ccn[nH]3)cc2c1Br [Compound 260, ((3-bromo-5-(1H-pyrazol-5-yl)-7-(4,4,4-trifluorobutoxy)benzo[b]thiophen-2-yl)difluoromethyl)phosphonic acid]	15.7	11.4
N=C(N)c1cc(OCCCC(F)(F)F)c2sc(C(F)(F)P(=O)(O)O)c(Br)c2c1 [Compound 262, ((3-bromo-5-carbamimidoyl-7-(4,4,4-trifluorobutoxy)benzo[b]thiophen-2-yl)difluoromethyl)phosphonic acid]	113	42
O=P(O)(O)C(F)(F)c1sc2c(OCCCC(F)(F)F)cc(CN3CCOCC3)cc2c1Br [Compound 263, ((3-bromo-5-(morpholinomethyl)-7-(4,4,4-trifluorobutoxy)benzo[b]thiophen-2-yl)difluoromethyl)phosphonic acid]	651	386
